This note sets out measurements from publication PMC6458995, “MAP4K4 Inhibition Promotes Survival of Human Stem Cell-Derived Cardiomyocytes and Reduces Infarct Size In Vivo” (Cell Stem Cell, 2019).

Holding throughout (test): Dundee kinase panel
Assay type in all cases: biochemical
What all share (conditions): for remaining activity at 1 µM: read-out: residual activity

Assay [1] has as its target T1, BRSK2 (Homo sapiens, UniProt Q8IWQ3).
T1 construct: lines 1-140) and Reaction Biology
T1 sequence (Q8IWQ3 1-736): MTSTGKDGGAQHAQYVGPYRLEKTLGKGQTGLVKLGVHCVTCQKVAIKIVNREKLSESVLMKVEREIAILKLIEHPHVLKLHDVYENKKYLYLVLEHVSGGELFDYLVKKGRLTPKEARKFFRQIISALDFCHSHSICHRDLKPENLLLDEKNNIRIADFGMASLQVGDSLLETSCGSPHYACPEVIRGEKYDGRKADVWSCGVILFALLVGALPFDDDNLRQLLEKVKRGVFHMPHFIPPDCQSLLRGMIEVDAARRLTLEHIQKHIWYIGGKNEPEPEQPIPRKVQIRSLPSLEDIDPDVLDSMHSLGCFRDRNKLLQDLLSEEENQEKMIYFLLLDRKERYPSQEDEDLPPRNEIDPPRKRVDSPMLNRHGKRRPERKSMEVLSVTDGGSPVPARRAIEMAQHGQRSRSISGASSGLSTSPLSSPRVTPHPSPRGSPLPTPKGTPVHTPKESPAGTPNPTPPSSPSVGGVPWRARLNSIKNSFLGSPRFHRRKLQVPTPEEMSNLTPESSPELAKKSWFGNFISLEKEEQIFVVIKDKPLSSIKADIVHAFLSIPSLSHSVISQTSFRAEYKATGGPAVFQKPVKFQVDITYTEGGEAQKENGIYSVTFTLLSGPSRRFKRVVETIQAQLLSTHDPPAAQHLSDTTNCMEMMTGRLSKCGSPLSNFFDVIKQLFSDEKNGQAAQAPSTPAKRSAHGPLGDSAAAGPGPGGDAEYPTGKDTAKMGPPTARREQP
As for the experimental part: (§1) Compounds were screened at 1 μM. For key hits, pIC50 values were then determined by HTRF as above. […] Stability in mouse and human liver microsomes was determined by Cyprotex.

Assay [2] deals with T2, MAPKAP-K3 (Homo sapiens, UniProt Q16644).
T2 construct: lines 1-140) and Reaction Biology
As to the method: as §1

Assay [3] deals with T3, CK1δ (Homo sapiens, UniProt P48730).
T3 construct: lines 1-140) and Reaction Biology
As to the method: as §1

For assay [4], the target named is T4, Aurora B (Homo sapiens, UniProt Q96GD4).
T4 construct: lines 1-140) and Reaction Biology
As to the method:
as §1

Assay [5] deals with T5, DYRK3 (Homo sapiens, UniProt O43781).
T5 construct: lines 1-140) and Reaction Biology
T5 sequence (O43781 1-588): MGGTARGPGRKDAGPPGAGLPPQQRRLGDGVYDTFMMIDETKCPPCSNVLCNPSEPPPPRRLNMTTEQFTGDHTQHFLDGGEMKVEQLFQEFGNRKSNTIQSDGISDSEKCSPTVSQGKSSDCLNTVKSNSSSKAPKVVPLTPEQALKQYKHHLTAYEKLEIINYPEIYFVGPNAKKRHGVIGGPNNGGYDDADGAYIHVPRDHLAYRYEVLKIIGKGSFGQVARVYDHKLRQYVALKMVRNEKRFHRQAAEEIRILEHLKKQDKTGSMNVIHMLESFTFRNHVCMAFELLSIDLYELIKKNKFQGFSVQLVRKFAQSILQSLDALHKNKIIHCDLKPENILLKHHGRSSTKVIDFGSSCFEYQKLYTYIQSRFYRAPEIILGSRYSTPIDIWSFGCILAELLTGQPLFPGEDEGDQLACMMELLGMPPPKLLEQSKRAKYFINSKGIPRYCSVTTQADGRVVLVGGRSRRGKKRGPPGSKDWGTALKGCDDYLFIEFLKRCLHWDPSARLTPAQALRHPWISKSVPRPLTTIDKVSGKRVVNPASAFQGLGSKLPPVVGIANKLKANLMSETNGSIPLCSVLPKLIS
As for the experimental part: as §1

The target of assay [6] is T6, YES1 (Homo sapiens, UniProt P07947).
T6 construct: lines 1-140) and Reaction Biology
As to the method: as §1

Assay [7] has as its target T7, ERK8 (Homo sapiens, UniProt Q8TD08).
T7 construct: lines 1-140) and Reaction Biology
T7 sequence (Q8TD08 1-544): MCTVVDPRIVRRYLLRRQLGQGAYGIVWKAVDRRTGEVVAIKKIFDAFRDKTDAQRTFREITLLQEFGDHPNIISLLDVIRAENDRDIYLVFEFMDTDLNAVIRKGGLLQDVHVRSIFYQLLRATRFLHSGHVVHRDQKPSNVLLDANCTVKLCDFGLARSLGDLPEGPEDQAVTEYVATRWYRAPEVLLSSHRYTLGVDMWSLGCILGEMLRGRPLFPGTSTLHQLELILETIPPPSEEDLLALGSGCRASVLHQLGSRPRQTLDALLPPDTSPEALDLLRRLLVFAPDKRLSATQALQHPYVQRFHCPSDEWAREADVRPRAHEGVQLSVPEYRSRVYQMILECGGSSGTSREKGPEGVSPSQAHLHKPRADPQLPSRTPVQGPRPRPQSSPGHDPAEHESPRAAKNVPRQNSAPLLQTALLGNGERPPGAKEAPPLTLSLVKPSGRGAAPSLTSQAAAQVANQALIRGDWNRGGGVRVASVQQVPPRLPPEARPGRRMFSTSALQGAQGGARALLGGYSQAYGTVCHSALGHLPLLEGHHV
As to the method:
as §1

The target in assay [8] is T8, RIPK2 (Homo sapiens, UniProt O43353).
T8 construct: lines 1-140) and Reaction Biology
As for the experimental part: as §1

Assay [9] concerns the target T9, ABL (Homo sapiens, UniProt P00519).
T9 construct: lines 1-140) and Reaction Biology
As for the experimental part:
as §1

T2 sequence (Q16644 whole entry): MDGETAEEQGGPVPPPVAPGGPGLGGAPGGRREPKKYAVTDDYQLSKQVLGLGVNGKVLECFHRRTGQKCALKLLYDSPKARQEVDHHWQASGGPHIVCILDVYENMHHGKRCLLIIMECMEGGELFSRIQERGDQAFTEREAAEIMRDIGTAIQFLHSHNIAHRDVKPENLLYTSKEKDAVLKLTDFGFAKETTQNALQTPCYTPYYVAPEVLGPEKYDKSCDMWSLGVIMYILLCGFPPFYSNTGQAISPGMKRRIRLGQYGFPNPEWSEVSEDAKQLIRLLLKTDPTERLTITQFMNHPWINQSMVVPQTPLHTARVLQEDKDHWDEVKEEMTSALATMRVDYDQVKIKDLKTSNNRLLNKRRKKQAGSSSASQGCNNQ
T9 sequence (P00519 whole entry): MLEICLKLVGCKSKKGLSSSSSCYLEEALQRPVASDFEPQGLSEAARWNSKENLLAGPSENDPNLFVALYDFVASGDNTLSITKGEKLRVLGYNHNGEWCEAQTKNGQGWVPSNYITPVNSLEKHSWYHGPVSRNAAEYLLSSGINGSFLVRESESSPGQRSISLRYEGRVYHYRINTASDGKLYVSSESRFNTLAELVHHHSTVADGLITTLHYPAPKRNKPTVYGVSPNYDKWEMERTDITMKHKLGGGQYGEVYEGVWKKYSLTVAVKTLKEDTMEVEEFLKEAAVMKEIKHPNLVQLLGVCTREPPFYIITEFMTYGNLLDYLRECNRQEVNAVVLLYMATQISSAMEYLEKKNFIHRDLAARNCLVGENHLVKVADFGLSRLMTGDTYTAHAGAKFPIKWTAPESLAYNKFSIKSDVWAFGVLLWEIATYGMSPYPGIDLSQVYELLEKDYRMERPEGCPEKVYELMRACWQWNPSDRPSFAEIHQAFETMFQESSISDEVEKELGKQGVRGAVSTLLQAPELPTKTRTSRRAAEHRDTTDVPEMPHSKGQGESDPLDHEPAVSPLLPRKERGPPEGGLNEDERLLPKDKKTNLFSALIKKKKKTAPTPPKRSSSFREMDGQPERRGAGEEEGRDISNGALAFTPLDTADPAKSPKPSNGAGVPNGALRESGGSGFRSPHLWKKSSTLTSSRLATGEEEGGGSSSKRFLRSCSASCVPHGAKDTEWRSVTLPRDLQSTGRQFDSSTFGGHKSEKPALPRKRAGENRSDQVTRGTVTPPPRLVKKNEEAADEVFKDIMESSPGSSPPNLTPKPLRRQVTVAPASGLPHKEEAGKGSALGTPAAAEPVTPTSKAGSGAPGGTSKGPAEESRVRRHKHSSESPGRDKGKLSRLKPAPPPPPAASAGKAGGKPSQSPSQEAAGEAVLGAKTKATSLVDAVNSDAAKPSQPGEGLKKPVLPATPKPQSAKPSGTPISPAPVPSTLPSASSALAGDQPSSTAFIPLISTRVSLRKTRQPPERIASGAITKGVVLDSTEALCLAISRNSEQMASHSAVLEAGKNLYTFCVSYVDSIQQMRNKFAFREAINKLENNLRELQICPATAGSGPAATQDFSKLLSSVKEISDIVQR
T8 sequence (O43353 whole entry): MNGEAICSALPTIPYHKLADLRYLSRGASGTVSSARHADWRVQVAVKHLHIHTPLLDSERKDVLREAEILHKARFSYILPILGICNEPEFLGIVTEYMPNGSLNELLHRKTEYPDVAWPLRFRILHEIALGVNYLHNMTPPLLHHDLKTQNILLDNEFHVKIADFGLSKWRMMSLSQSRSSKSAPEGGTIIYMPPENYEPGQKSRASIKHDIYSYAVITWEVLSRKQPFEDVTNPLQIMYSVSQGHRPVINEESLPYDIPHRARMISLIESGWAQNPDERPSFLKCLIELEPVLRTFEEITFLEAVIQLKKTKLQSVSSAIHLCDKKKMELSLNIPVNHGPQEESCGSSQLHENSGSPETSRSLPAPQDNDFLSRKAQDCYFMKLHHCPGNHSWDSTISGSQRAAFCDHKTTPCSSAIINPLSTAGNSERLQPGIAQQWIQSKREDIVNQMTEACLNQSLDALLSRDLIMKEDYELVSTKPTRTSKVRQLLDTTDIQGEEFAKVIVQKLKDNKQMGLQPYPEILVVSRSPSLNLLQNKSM
T3 sequence (P48730 whole entry): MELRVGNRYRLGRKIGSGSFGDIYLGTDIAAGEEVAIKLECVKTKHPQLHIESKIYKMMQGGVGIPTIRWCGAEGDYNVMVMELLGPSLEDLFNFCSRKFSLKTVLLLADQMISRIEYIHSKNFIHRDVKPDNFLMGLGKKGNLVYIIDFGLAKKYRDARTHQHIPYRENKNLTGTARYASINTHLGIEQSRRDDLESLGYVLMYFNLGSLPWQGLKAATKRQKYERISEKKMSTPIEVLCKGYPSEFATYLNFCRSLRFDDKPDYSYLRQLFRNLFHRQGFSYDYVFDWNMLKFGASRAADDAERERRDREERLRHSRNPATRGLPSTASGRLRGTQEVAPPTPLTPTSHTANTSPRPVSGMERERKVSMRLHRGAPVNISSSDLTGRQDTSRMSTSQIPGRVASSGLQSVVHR
T6 sequence (P07947 whole entry): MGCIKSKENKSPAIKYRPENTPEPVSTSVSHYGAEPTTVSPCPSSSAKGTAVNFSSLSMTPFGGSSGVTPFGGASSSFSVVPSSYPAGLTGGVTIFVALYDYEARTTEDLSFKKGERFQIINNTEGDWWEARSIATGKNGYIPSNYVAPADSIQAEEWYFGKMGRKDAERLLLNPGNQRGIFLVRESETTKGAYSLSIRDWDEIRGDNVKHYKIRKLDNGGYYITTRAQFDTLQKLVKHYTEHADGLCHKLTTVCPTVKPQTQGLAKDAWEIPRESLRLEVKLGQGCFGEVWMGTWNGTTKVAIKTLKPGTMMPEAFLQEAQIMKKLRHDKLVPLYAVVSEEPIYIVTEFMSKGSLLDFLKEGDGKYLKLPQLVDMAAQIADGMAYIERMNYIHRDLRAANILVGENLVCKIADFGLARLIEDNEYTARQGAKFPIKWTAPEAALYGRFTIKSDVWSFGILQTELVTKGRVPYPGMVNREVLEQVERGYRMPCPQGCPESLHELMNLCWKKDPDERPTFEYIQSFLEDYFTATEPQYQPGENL
T4 sequence (Q96GD4 whole entry): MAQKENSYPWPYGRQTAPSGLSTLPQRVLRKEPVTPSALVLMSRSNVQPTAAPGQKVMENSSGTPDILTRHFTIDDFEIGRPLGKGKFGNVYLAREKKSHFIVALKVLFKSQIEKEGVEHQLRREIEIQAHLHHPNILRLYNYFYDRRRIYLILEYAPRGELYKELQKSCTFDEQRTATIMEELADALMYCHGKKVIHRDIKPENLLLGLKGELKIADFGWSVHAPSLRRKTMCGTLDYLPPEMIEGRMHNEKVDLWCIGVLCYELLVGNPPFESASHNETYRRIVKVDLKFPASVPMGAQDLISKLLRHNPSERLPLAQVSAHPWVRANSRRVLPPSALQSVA

As to `Oc1ncnc2c1c(-c1ccccc1)cn2-c1ccccc1` [F1386-0303, 5,7-diphenyl-7H-pyrrolo[2,3-d]pyrimidin-4-ol], the remaining activity at 1 µM in assay [1] turned out to be 91%; in [2] it was 104%; in [3] it was 107%; in [4], 85%; in [5], 101%; in assay [6] it was 85%. The results for the remaining activity at 1 µM in assay [7], in assay [8] and in assay [9] were 109%, 105% and 94%, respectively.

On to `O=C1Cc2c([nH]c3ccc(Br)cc23)-c2ccccc2N1` [Kenpaullone], for which the remaining activity at 1 µM in [1] worked out at 35%; in assay [2] it was 83%; in [3], 104%; in [4] it was 46%; in assay [5] it was 72%; in assay [6], 100%. For the same compound, the remaining activity at 1 µM was 46% in assay [7], 60% in [8] and 40% in [9].

`COCCOc1ccc(-c2cn(-c3ccccc3)c3nc[nH]c(=O)c23)cc1` [DMX-5804, 5-[4-(2-methoxy-ethoxy)-phenyl]-7-phenyl-3,7-dihydro-pyrrolo[2,3-d]pyrimidin-4-one]: the remaining activity at 1 µM in [1] is 92%; in assay [2], 104%; in assay [3], 94%; in assay [4], 29%; in [5], 128%; in [6] it was 96%. The remaining activity at 1 µM in assay [7] came to 110%; in assay [8], 89%; in assay [9] it was 79%.

Turning to `O=C1Nc2ccc(I)cc2/C1=C/c1cc(Br)c(O)c(Br)c1` [GW5074], the remaining activity at 1 µM in assay [1] was determined as 75%; in assay [2] it was 71%; in assay [3] it was 88%; in [4], 29%; in [5], 14%; in assay [6] it was 93%. Further, the remaining activity at 1 µM in assay [7] turned out to be 35%; in assay [8] it was 51%; in [9], 58%.

In the case of `Nc1ncc(C(=O)NC2CN(C(=O)C3CC3)C2)c2ccc(-c3cccc(F)c3)nc12` [GNE-495], the residual activity in assay [1] (1 μM) turned out to be 77%; in assay [2] (1 μM) it was 99%; in assay [3] (1 μM), 65%; in assay [4] (1 μM), 46%; in assay [5] (1 μM) it was 83%; in assay [6] (1 μM), 53%. The residual activity in [7] (1 μM) was determined as 95%; in assay [8] (1 μM), 11%; in assay [9] (1 μM) it was 68%.
